Measurements: ChEMBL document CHEMBL6134891, “Thienopyrimidinone Derivatives as a GluN2B/C/D Biased, Positive Allosteric Modulator of the N-Methyl-d-Aspartate Receptor” (J Med Chem, 2025)
Converted amounts (≈) assume the structure as drawn.

Experiments:
Glutamate NMDA receptor = assay: Positive allosteric modulation of NMDAR in rat hippocampal neurons by Whole-cell and excised-patch recording method; conditions: hippocampal neuron
[1] = molecular target: T1, Glutamate receptor ionotropic, NMDA 2C (Homo sapiens, UniProt Q05586+Q14957); assay: Positive allosteric modulation of GluN2C receptor (unknown origin) expressed in Doxycycline-inducible HEK293 cells by calcium influx assay
[2] = molecular target: T2, Glutamate receptor ionotropic, NMDA 2B (Homo sapiens, UniProt Q05586+Q13224); assay: Positive allosteric modulation of GluN2B receptor (unknown origin) expressed in Doxycycline-inducible HEK293 cells by calcium influx assay
[3] = molecular target: T3, Glutamate receptor ionotropic, NMDA 2A (Homo sapiens, UniProt Q05586+Q12879); assay: Positive allosteric modulation of GluN2A receptor (unknown origin) expressed in Doxycycline-inducible HEK293 cells by calcium influx assay
[4] = molecular target: T4, Glutamate receptor ionotropic, NMDA 2D (Homo sapiens, UniProt O15399+Q05586); assay: Positive allosteric modulation of GluN2D receptor (unknown origin) expressed in Doxycycline-inducible HEK293 cells by calcium influx assay
[5] = molecular target: T5, Glutamate receptor ionotropic, NMDA 2C (Rattus norvegicus, UniProt P35439+Q00961)
Description: (§1) Positive allosteric modulation of recombinant rat GluN2C receptor expressed in Xenopus oocytes assessed as glutamate/glycine-induced potentiation of current by 2EVC method

[6] = molecular target: T6, Glutamate receptor ionotropic, NMDA 2B (Rattus norvegicus, UniProt P35439+Q00960)
Description: (§2) Positive allosteric modulation of recombinant rat GluN2B receptor expressed in Xenopus oocytes assessed as glutamate/glycine-induced potentiation of current by 2EVC method

[7] = molecular target: T7, Glutamate receptor ionotropic, NMDA 2D (Rattus norvegicus, UniProt P35439+Q62645)
Description: (§3) Positive allosteric modulation of recombinant rat GluN2D receptor expressed in Xenopus oocytes assessed as glutamate/glycine-induced potentiation of current by 2EVC method

[8] = molecular target: T7, Glutamate receptor ionotropic, NMDA 2D; remark: listed apart in the source
Description: Positive allosteric modulation of recombinant rat GluN2D receptor expressed in Xenopus laevis stage VI oocytes assessed as glutamate/glycine-induced potentiation of current by 2EVC method

[9] = Kinetic solubility of compound in PBS at pH 7.3 by nephelometry
[10] = Stability in human plasma assessed as half life
in vitro = conditions: human, liver microsomes
Description: Intrinsic clearance in human liver microsomes at 3 uM preincubated for 5 mins followed by NADPH addition measured up to 30 mins by LC-MS/MS analysis

[11] = Stability in mouse plasma assessed as half life
[12] = molecular target: T6, Glutamate receptor ionotropic, NMDA 2B; remark: listed apart in the source
Description: Positive allosteric modulation of recombinant rat GluN2B receptor expressed in Xenopus laevis stage VI oocytes assessed as glutamate/glycine-induced potentiation of current by 2EVC method

[13] = Stability in rat plasma assessed as half life
[14] = molecular target: T5, Glutamate receptor ionotropic, NMDA 2C; remark: listed apart in the source
Description: Positive allosteric modulation of recombinant rat GluN2C receptor expressed in Xenopus laevis stage VI oocytes assessed as glutamate/glycine-induced potentiation of current by 2EVC method

[15] = molecular target: Glutamate receptor ionotropic, NMDA 2B (Rattus norvegicus, UniProt Q00960); conditions: oocyte
Description: as §2

[16] = molecular target: Glutamate receptor ionotropic, NMDA 2C (Rattus norvegicus, UniProt Q00961); conditions: oocyte
Description: as §1

[17] = molecular target: Glutamate receptor ionotropic, NMDA 2D (Rattus norvegicus, UniProt Q62645); conditions: oocyte
Description: as §3

[18] = Efflux ratio of apparent permeability in MDCK-MDR1 cells; conditions: dog
[19] = Apparent permeability in MDCK-MDR1 cells; conditions: dog
Translocator protein = Translocator protein (Homo sapiens, UniProt P30536); assay: Inhibition of peripheral benzodiazepine receptor (unknown origin) by radioligand binding assay
[20] = molecular target: T1, Glutamate receptor ionotropic, NMDA 2C; assay: Positive allosteric modulation of GluN2C receptor (unknown origin)
[21] = molecular target: T4, Glutamate receptor ionotropic, NMDA 2D; assay: Positive allosteric modulation of GluN2D receptor (unknown origin)
[22] = molecular target: T3, Glutamate receptor ionotropic, NMDA 2A; assay: Positive allosteric modulation of GluN2A receptor (unknown origin)
[23] = molecular target: T2, Glutamate receptor ionotropic, NMDA 2B; assay: Positive allosteric modulation of human GluN2B receptor expressed in HEK293 cells by Whole-cell patch-clamp method
[24] = molecular target: T1, Glutamate receptor ionotropic, NMDA 2C; assay: Positive allosteric modulation of human GluN2C receptor expressed in HEK293 cells by Whole-cell patch-clamp method

T5 sequence (Q00961 whole entry, one chain of several): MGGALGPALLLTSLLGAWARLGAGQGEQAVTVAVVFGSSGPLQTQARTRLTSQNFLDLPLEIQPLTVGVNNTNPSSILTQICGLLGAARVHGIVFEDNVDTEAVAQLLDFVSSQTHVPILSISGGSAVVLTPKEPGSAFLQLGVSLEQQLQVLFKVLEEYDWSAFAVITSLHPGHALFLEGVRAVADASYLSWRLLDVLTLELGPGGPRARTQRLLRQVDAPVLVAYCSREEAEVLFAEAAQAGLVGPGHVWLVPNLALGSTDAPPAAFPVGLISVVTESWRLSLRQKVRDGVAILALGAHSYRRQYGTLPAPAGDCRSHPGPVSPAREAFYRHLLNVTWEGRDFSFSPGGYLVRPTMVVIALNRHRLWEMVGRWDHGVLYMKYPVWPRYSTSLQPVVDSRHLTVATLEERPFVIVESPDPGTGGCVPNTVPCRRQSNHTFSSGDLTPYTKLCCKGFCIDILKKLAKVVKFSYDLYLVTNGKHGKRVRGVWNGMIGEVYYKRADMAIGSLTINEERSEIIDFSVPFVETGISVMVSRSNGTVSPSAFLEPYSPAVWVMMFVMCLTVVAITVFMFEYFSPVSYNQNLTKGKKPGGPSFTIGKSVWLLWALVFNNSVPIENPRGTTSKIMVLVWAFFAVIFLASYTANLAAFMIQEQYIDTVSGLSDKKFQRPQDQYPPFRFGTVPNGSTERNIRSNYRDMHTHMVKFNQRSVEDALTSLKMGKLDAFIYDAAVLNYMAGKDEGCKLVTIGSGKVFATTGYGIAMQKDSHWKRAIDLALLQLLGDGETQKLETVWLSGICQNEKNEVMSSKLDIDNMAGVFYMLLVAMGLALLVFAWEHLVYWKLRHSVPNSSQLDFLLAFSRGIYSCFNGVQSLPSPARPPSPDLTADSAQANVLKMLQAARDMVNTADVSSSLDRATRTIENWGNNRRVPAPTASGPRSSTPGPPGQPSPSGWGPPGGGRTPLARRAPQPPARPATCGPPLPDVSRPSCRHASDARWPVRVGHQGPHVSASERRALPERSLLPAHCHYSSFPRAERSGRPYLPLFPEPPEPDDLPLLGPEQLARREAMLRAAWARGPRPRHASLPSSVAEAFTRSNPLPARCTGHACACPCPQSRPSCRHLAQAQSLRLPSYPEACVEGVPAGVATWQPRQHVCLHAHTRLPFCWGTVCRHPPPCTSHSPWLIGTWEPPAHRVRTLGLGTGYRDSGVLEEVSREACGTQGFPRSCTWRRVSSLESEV
T1 sequence (Q14957 whole entry, one chain of several): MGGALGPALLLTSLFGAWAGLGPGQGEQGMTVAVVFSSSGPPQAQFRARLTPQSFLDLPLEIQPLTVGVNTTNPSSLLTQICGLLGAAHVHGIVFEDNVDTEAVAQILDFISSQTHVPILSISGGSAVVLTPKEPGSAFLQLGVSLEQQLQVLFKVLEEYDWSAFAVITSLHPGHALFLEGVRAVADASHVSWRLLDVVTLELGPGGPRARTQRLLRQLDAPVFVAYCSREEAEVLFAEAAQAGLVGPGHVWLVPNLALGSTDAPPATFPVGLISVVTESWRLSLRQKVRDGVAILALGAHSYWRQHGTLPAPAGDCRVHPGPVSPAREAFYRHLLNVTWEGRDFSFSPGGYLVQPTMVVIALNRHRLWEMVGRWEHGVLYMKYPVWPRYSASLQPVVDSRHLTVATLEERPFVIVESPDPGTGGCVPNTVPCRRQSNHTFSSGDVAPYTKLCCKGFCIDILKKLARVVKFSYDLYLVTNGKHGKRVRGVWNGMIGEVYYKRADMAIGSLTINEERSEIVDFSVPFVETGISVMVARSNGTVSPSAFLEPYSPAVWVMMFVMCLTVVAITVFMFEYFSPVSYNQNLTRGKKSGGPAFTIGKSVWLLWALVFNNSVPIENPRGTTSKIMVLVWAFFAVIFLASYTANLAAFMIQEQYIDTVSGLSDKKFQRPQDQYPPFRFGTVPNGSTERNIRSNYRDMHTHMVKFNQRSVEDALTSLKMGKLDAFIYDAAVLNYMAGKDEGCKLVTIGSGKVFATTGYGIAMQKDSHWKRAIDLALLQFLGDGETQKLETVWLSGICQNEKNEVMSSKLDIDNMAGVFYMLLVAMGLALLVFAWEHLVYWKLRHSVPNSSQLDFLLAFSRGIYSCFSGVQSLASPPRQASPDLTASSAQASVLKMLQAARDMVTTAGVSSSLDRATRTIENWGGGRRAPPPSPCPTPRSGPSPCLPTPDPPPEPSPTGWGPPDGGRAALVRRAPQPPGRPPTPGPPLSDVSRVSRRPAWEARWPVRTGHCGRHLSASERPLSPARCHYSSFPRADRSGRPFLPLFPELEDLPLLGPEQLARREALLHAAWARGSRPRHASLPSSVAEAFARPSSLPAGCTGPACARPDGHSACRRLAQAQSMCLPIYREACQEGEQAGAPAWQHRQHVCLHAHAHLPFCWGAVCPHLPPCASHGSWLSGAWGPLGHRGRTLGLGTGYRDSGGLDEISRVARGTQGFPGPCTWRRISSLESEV
T7 sequence (Q62645 whole entry, one chain of several): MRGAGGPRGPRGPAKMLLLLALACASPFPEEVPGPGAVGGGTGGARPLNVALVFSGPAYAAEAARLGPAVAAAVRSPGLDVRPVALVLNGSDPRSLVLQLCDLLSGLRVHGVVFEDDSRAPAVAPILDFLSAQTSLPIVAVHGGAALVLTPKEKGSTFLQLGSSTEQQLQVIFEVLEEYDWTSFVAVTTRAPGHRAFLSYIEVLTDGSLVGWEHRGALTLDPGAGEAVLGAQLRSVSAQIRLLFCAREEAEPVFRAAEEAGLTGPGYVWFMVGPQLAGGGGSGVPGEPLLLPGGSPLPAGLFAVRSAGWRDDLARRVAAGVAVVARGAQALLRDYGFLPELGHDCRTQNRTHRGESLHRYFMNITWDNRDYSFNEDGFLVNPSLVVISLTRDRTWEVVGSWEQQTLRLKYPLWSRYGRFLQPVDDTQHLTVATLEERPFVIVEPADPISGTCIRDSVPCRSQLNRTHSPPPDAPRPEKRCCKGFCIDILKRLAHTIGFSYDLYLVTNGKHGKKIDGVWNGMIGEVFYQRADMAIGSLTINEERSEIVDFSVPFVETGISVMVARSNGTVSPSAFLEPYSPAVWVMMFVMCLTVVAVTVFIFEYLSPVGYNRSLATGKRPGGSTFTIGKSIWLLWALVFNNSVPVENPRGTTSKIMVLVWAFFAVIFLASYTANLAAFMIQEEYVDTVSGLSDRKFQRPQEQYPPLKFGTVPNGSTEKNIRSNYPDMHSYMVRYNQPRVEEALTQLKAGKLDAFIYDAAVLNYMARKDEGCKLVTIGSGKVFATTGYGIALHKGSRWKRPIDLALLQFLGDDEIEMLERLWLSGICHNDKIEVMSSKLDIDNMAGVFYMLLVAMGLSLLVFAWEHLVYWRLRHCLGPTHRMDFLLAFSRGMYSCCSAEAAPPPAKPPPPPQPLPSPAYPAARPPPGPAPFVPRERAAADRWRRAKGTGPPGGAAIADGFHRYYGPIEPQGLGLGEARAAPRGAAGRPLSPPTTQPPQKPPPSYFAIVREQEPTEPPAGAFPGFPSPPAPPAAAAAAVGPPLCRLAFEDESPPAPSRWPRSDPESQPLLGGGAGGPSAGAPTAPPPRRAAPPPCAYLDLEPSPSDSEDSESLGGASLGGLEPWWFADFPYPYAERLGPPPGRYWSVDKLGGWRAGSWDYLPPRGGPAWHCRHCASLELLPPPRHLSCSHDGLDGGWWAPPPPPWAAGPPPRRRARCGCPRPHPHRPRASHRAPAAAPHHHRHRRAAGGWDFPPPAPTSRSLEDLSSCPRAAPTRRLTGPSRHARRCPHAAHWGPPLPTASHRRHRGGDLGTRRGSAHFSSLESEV
Chain of Glutamate receptor ionotropic, NMDA 2C (Rattus norvegicus, UniProt Q00961) (Q00961 whole entry): as the sequence (Q00961 whole entry, one chain of several) above
Chain of Glutamate receptor ionotropic, NMDA 2D (Rattus norvegicus, UniProt Q62645) (Q62645 whole entry): as the sequence (Q62645 whole entry, one chain of several) above
Chain of Translocator protein (P30536 whole entry): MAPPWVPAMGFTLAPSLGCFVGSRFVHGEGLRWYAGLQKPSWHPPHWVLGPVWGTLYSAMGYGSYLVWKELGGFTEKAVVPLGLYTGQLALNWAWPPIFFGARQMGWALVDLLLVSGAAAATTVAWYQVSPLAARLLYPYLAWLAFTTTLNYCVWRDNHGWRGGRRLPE

| SMILES | EC50 [5] | EC50 [6] | EC50 [7] | other results |
| --- | --- | --- | --- | --- |
| CC(C)[C@@H](O)CC[C@@H](C)[C@H]1CC[C@H]2[C@@H]3CC=C4C[C@@H](O)CC[C@]4(C)[C@H]3CC[C@]12C | – | – | – | EC50 (Glutamate NMDA receptor): 1.2 µM |
| CCCc1nc2[nH]c(C)c(NS(=O)(=O)c3ccc(C4CCCCC4)cc3)c(=O)n2n1 | – | – | – | EC50 [1]: 3 µM; EC50 [2]: 3 µM; EC50 [3]: 3 µM; EC50 [4]: 3 µM |
| Cc1sc2ncn(CC(=O)N3CC(C)(F)C3)c(=O)c2c1-c1ccc2c(c1)OC(F)(F)O2 | 13 µM | 2.8 µM | 13 µM | – |
| Cc1sc2ncn(CC(=O)N3CC(C)(F)C3)c(=O)c2c1-c1cc(F)cc(Cl)c1 | 9.4 µM | 1.6 µM | 7.4 µM | – |
| Cc1sc2ncn(CC(=O)N3CCC(C)C3)c(=O)c2c1-c1cccc(Br)c1 (stereo not given) | 6.6 µM | 2.5 µM | 13 µM | – |
| Cc1sc2ncn(CC(=O)N3CC(C)(F)C3)c(=O)c2c1-c1ccc(F)c(Cl)c1 | 1.2 µM | 0.7 µM | 2.1 µM | – |
| CCC1(F)CN(C(=O)Cn2cnc3sc(C)c(-c4cccc(Br)c4)c3c2=O)C1 | 2.4 µM | 0.97 µM | 3.6 µM | – |
| Cc1sc2ncn(CC(=O)N3CCCC3)c(=O)c2c1-c1cccc(Br)c1 | – | – | – | EC50 [8]: 18 µM; solubility kinetic [9]: > 100 µM; half-life [10]: > 4 h; microsomal CLint at 0.5 h, 3 µM (in vitro): 50 µL/min/mg; half-life [11]: > 4 h; EC50 [12]: 9.9 µM; half-life [13]: > 4 h; EC50 [14]: 12 µM |
| C#CC1(F)CN(C(=O)Cn2cnc3sc(C)c(-c4cccc(Br)c4)c3c2=O)C1 | – | – | – | EC50 [15]: Not_active; EC50 [16]: Not_active; EC50 [17]: Not_active |
| CCCC1(F)CN(C(=O)Cn2cnc3sc(C)c(-c4cccc(Br)c4)c3c2=O)C1 | 13 µM | – | 11 µM | EC50 [15]: Not_active |
| CC1(F)CN(C(=O)Cn2cnc3sc(C(F)(F)F)c(-c4ccc(F)c(Br)c4)c3c2=O)C1 | 3.2 µM | 2.3 µM | 6.1 µM | – |
| Cc1sc2ncn(CC(=O)N3CC(C)(F)C3)c(=O)c2c1-c1cccc(Br)c1 | 2 µM | 0.78 µM | 2.8 µM | – |
| Cc1sc2ncn(CC(=O)N3CC(C)(F)C3)c(=O)c2c1-c1cccc(Cl)c1 | 2.2 µM | 1.2 µM | 4.9 µM | – |
| Cc1sc2ncn(CC(=O)N3CC[C@@H](F)C3)c(=O)c2c1-c1cccc(Br)c1 | – | 14 µM | – | – |
| CC1(F)CN(C(=O)Cn2cnc3sc(C#N)c(-c4ccc(F)c(Br)c4)c3c2=O)C1 | 0.94 µM | 0.36 µM | 0.89 µM | efflux ratio [18]: 4.66; solubility kinetic [9]: 45 µM (≈ 21.6 µg/mL); half-life [10]: > 4 h; microsomal CLint at 0.5 h, 3 µM (in vitro): 16 µL/min/mg; half-life [11]: > 4 h; half-life [13]: > 4 h; Papp [19]: 9.36 ×10⁻⁶ cm/s |
| Cc1sc2ncn(CC(=O)N3CC(C)(F)C3)c(=O)c2c1-c1cccc(C(F)(F)F)c1 | 2.2 µM | 1.1 µM | 3.8 µM | – |
| Cc1sc2ncn(CC(=O)N3CC(C)(F)C3)c(=O)c2c1-c1cc(Cl)ccc1F | 3.9 µM | 1.5 µM | 4.5 µM | – |
| Cc1sc2ncn(CC(=O)N3CC(C)(F)C3)c(=O)c2c1-c1ccc2ccn(C)c2c1 | – | 10 µM | – | – |
| C#Cc1sc2ncn(CC(=O)N3CC(C)(F)C3)c(=O)c2c1-c1ccc(F)c(Br)c1 | 0.82 µM | 0.57 µM | 1.1 µM | Ki (Translocator protein): 0.55 µM |
| Cc1sc2ncn(CC(=O)N3CC(C)(C)C3)c(=O)c2c1-c1cccc(Br)c1 | 5.3 µM | 2.8 µM | 11 µM | – |
| Cc1sc2ncn(CC(=O)N3CC(F)(C4CC4)C3)c(=O)c2c1-c1cccc(Br)c1 | 3.7 µM | 2 µM | 5.4 µM | – |

| SMILES | EC50 [5] | EC50 [6] | EC50 [7] | other results |
| --- | --- | --- | --- | --- |
| Cc1sc2ncn(CC(=O)N3CC[C@@H](O)C3)c(=O)c2c1-c1cccc(Br)c1 | – | – | – | EC50 [15]: Not_active; EC50 [16]: Not_active; EC50 [17]: Not_active |
| Cc1sc2ncn(CC(=O)N3CC(C)(F)C3)c(=O)c2c1-c1ccc(F)c(OC(C)C)c1 | 5.2 µM | 2 µM | 5.8 µM | – |
| Cc1sc2ncn(CC(=O)N3CCC(F)(F)C3)c(=O)c2c1-c1cccc(Br)c1 | 6.7 µM | 2.6 µM | 11.7 µM | – |
| Cc1sc2ncn(CC(=O)N3CCC(C)(F)C3)c(=O)c2c1-c1cccc(Br)c1 (stereo not given) | 9.1 µM | 2.9 µM | 13 µM | – |
| Cc1sc2ncn(CC(=O)N3CC(C)(F)C3)c(=O)c2c1-c1cccc(OC(F)(F)F)c1 | 2.6 µM | 1.1 µM | 4.2 µM | – |
| Cc1sc2ncn(CC(=O)N3CC(C)(F)C3)c(=O)c2c1-c1ccc2ccccc2c1 | 3 µM | 2 µM | 6.3 µM | – |
| Cc1sc2ncn(CC(=O)N3CC(C)C3)c(=O)c2c1-c1cccc(Br)c1 | 12 µM | 7.6 µM | – | – |
| Cc1sc2ncn(CC(=O)N3CCC[C@@H]3C)c(=O)c2c1-c1cccc(Br)c1 | – | 21 µM | – | – |
| Cc1sc2ncn(CC(=O)N3CC(C)(F)C3)c(=O)c2c1-c1ccc(F)c(Br)c1 | 0.63 µM | 0.33 µM | 1.1 µM | efflux ratio [18]: 1.98; solubility kinetic [9]: 34 µM (≈ 15.9 µg/mL); half-life [10]: > 4 h; microsomal CLint at 0.5 h, 3 µM (in vitro): 29 µL/min/mg; half-life [11]: > 4 h; half-life [13]: > 4 h; Papp [19]: 19.6 ×10⁻⁶ cm/s |
| CC1(F)CN(C(=O)Cn2cnc3scc(-c4ccc(F)c(Br)c4)c3c2=O)C1 | 0.87 µM | 0.74 µM | 2.1 µM | efflux ratio [18]: 2.04; solubility kinetic [9]: 33 µM (≈ 15 µg/mL); half-life [10]: > 4 h; microsomal CLint at 0.5 h, 3 µM (in vitro): 14 µL/min/mg; half-life [11]: > 4 h; half-life [13]: > 4 h; Papp [19]: 16.6 ×10⁻⁶ cm/s |
| CCc1sc2ncn(CC(=O)N3CC(C)(F)C3)c(=O)c2c1-c1ccc(F)c(Br)c1 | 3.14 µM | 1.8 µM | 4.7 µM | – |
| Cc1sc2ncn(CC(=O)N3CC(C)(F)C3)c(=O)c2c1-c1ccc(F)c(C(F)(F)F)c1 | 1.6 µM | 0.6 µM | 2.4 µM | – |
| Cc1sc2ncn(CC(=O)N3CC[C@H](F)C3)c(=O)c2c1-c1cccc(Br)c1 | 12 µM | 15 µM | 25 µM | – |
| Cc1sc2ncn(CC(=O)N3CC(C)(F)C3)c(=O)c2c1-c1ccc(Cl)c(Cl)c1 | 0.86 µM | 0.41 µM | 1 µM | – |
| Cc1sc2ncn(CC(=O)N3CC(C)(F)C3)c(=O)c2c1-c1ccc(F)c(C#N)c1 | 4.2 µM | 1.3 µM | 4.8 µM | – |
| Cc1sc2ncn(CC(=O)N3CCC3)c(=O)c2c1-c1cccc(Br)c1 | 20 µM | 23 µM | – | – |
| Cc1sc2ncn(CC(=O)N3CC(C)(F)C3)c(=O)c2c1-c1ccc(Cl)c(F)c1 | 4.5 µM | 1.7 µM | 5.6 µM | – |
| Cc1sc2ncn(CC(=O)N3CC(C)(F)C3)c(=O)c2c1-c1cccc(Cl)c1F | 5.3 µM | 2 µM | 6.9 µM | – |
| C[C@H](CC[C@](C)(O)C(F)(F)F)[C@H]1CC[C@H]2[C@@H]3CC=C4C[C@@](C)(O)CC[C@]4(C)[C@H]3CC[C@]12C [DALZANEMDOR] | – | – | – | EC50 [20]: 0.079 µM; EC50 [21]: 0.079 µM; EC50 [22]: 0.079 µM |
| C[C@@H](O)[C@@H](C(N)=O)N1C[C@@]2(CCCN2C(=O)OC(C)(C)C)C1=O [ZELQUISTINEL] | – | – | – | EC50 [23]: 9.7 µM; EC50 [24]: 9.7 µM |
